Assay results published in patent US11058700B2, “Macrocyclic lactones and uses thereof as modulators of purinergic receptors” (City of Hope, priority 2015, dated 2021).

Tests used:
4T1.2 cells = assay: Cell viability (acid phosphatase assay) of cancer cells treated with Ivermectin; type: cell-based, mouse; settings: for effect on Ivermectin-induced cell death: cells treated with Ivermectin (32 μM, 4 h in figure legends) in the presence of the agent
Experimental: Cell viability. Cancer cells were plated on 96 well flat-bottom plates and allowed to attach overnight. Cells were then pre-incubated with drugs for 1 h and treated with Ivermectin for 4 h. In the case of 24 h and 48 h incubations the cells, Ivermectin and drugs were plated together. All treatments and controls were done in triplicate wells and results were validated in at least two independent experiments. Following treatment the plates were washed once with PBS and cell viability was measured using the acid phosphatase assay. Briefly, cells were incubated for 1h at 37° C. in 100 μL assay buffer (0.16 M sodium acetate, 0.1% Triton-X-100, supplemented with 4-Nitrophenyl phosphate disodium salt hexahydrate, Sigma Aldrich, at 0.00263 g/ml). Reaction was stopped using 10 μL of 1N sodium hydroxide. Absorption at 405 nm was measured within 10 min using a multi-well plate reader. Mode of cell death and viability of cells in suspension was evaluated using flow cytometry. Briefly, cancer cells were pre-incubated with drugs for 30 min to 1 h, as indicated, treated with Ivermectin for 4 h in 5 ml FACS tubes , washed twice in PBS and stained with PE-conjugated Annexin V and 7AAD (1 μl per 100 μl/200,000 cancer cells) for 15 min.

[1] = system: P2X4/P2X7/Pannexin-1 channels; assay: Membrane permeabilization to YOPRO-1; type: cell-based, mouse; settings: 4T1.2 cells, 3 mM ATP and 32 μM Ivermectin
Experimental: FIGS. 3A-3G. Dual roles of ATP and purinergic signaling in Ivermectin's killing. FIG. 3A: Depletion of extracellular ATP with Apyrase (2500 μunits/ml) exacerbates killing of 4T1.2 cell by Ivermectin. FIG. 3B: Extracellular Ca^2− and ATP contain Ivermectin-induced cell swelling. 4T1.2 cells were treated with 32 μM Ivermectin for 4 h in the presence of 1 mM EDTA or 2500 μunits/ml Apyrase. FIG. 3C: Ivermectin (0.5-32 μM) and high concentrations of extracellular ATP (0.3-3 mM) synergistically open pannexin-1 channels and permeabilize the membrane on live cells (7AAD-positive dead cells were gated out). 4T1.2 cells were treated for 30 min as indicated in the presence of 7 AAD and 5 μM YOPRO-1. FIG. 3D: Analysis of supernatants from Ivermectin-treated murine and human TNBC cells showing rapid release of ATP followed by its transient depletion. Depletion of extracellular ATP with Apyrase (2500 μunits/ml) was used as a positive control. FIG. 3E: Analysis of membrane-proximal ATP levels using cancer cells engineered to express a membrane-bound Luciferase. […] FIG. 3G: The P2X7-specific inhibitor KN-62 (1-10 μM) blocks Ivermectin cytotoxicity (IVM 8-32 μM, 4-48 h treatments). Asterisk (*) indicates p<0.05 relative to untreated or Ivermectin alone controls, respectively.
FIGS. 10A-10L. Extracellular Dual roles of ATP and purinergic signaling in Ivermectin's killing. 4T1.2 cells were treated with Ivermectin for 4 h in the presence of different inhibitors at μM concentrations as indicated. FIG. 10A: The non-specific P2 purinergic receptor inhibitor Suramin (4-400 μM) exacerbates Ivermectin-induced cell death. FIG. 10B: Inhibition of extracellular ATPases with PSB 069 protects against Ivermectin cytotoxicity. FIG. 10C: Blockade of pannexin-1 channels with Panx-1 mimetic blocking peptide (Anaspec) and Probenecid at μM concentrations as indicated exacerbates killing. […] FIG. 10E: ATP plays a transiently protective role only in the mouse but not human breast cancer cells. 4T1.2 and MDA-MB-231 cells were treated with 32 μM Ivermectin for 4 h in the presence of ATP at mM concentrations as indicated. FIG. 10F: qPCR showing up-regulation of P2X4 and P2X7 receptors on several murine cancer cell lines, including 4T1.2 and DD-Her2/neu (breast), and B16 (melanoma). […] Expression of P2X and P2Y purinergic receptors, NOX family members, GABA, and Glycine receptors was analyzed using publicly available breast cancer cell lines datasets. Statistically significant (p<0.05) up-regulation and down-regulation in breast cancer versus normal cells is shown in red and blue, respectively. FIG. 10H: Correlation between sensitivity to Ivermectin and ATP across various human cancer cell lines. Cancer cells were treated for 24 h with 3 mM ATP or Ivermectin at 16 and 32 μM doses as indicated. […]

Row | SMILES | effect on Ivermectin-induced cell death (4T1.2 cells) | block of ATP+Ivermectin-induced membrane permeabilization to YOPRO-1 [1] | KN-62 needed to protect against Ivermectin-induced cell death (4T1.2 cells) | long-term protection against Ivermectin (4T1.2 cells; 24 h, 12 μM IVM)
1 | Clc1cccc(-c2nnnn2Cc2cccnc2)c1Cl [A438079] | did not observe any protection | suppressed permeabilization to YOPRO-1 in a dose-dependent fashion |  | 
2 | CN([C@@H](Cc1ccc(OS(=O)(=O)c2cccc3cnccc23)cc1)C(=O)N1CCN(c2ccccc2)CC1)S(=O)(=O)c1cccc2cnccc12 [KN-62] | effective at blocking Ivermectin-induced necrotic and apoptotic cell death | suppressed permeabilization to YOPRO-1 in a dose-dependent fashion | More than 1 μM | long-term protection against Ivermectin and ATP that extended up to 24 h
3 | COc1ccc(S(=O)(=O)N(CCO)c2ccccc2CN(C)C/C=C/c2ccc(Cl)cc2)cc1 [KN-93] | effectively blocked Ivermectin-induced cell death | most potent at blocking ATP- and Ivermectin-induced membrane permeabilization to YOPRO-1 |  | 
